Literature values as cited in patent US20200188476A1, “ANTI-MICROBIAL AGENT-POLYMER CONJUGATES AND METHODS OF USE THEREOF” (The Regents of the University of California, priority 2017, published 2020).

What was measured:
bacteria [1] = tested on: bacteria
bacteria [2] = tested on: bacteria; remark: listed apart in the source
[3] = human, in vivo

## Polymyxin B nonapeptide [nonapeptide of polymyxin B]
Bacteria [1]
  reduction of antibacterial activity relative to polymyxin B: 2-64 fold
Cell culture
  reduction of toxicity in cell culture relative to polymyxin B: about 100 fold

## octanoyl polymyxin B octapeptide
Bacteria [2]
  inhibition of bacterial growth: very potent agents to inhibit bacterial growth

## octanoyl polymyxin B nonapeptide
Bacteria [2]
  inhibition of bacterial growth: very potent agents to inhibit bacterial growth

## colistin
[3]
  overall incidence of neurotoxicity or neuropathy: 7.3%

## octanoyl polymyxin B heptapeptide
Bacteria [2]
  concentration that inhibits the growth of bacteria: 128 µg/mL
